Experimental data from ChEMBL document CHEMBL3259547, “Selective 5-HT Receptor Modulators May Deliver Focused Targeting with Fewer Adverse Effects” (ACS Med Chem Lett, 2014).

Molecular target: 5-hydroxytryptamine receptor 7 (Rattus norvegicus) (UniProt P32305)
Assay: Modulation of rat 5HT7 receptor by cAMP assay
Type: functional

Chain of 5-hydroxytryptamine receptor 7 (Rattus norvegicus) (P32305 whole entry): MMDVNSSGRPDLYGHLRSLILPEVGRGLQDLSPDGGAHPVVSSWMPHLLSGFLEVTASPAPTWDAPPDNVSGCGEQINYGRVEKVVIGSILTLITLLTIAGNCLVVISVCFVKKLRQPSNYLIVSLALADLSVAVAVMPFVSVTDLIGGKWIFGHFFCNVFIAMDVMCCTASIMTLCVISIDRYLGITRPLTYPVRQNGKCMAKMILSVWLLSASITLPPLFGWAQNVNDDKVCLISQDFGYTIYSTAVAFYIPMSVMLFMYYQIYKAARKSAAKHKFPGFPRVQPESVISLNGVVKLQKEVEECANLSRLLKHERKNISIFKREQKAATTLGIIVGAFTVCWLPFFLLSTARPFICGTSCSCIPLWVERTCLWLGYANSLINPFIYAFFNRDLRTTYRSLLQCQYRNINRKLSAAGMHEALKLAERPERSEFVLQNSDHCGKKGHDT

Structure (SMILES)	pKb
FC(F)(COc1ccc(Cl)cc1OC1CNC1)c1ccccc1	7.3
Clc1cccc(COc2ccc(Br)cc2OC2CNC2)c1	7.5
C[C@@H](Oc1ccc(C(F)(F)F)cc1OC1CNC1)c1cccc(C(F)(F)F)c1	6.8
Cc1nc(COc2ccc(Cl)cc2OC2CNC2)cs1	6.9
